Columns and labels:
[1] = system: scopolamine-induced amnesic mice; assay: Object recognition test (ORT); type: in vivo; settings: i.p.; for Discrimination index / episodic short-term memory, ORT vs scopolamine-treated group: tacrine 1 mg/kg, IND8, QND8 10 and 50 μmol/kg; for Minimum effective dose, ORT: scopolamine induced amnesia model, ICR mice
Description: FIG. 22 illustrates exploration time to familiar (F) and novel (N) objects of IND8 (A) and QND8 (B) in test phase of ORT. Each mouse was allowed to explore an open field apparatus for 5 min in a habituation phase. After a 24 h period, IND8, QND8, PNU-282987, vehicle (15% Tween80, SH) and tacrine (TC) were injected 1 h and scopolamine (SC) 30 min before sample phase, respectively. Each mouse explored 2 identical objects in the sample phase for 5 min and then placed in its cage for 10 min before the test phase began. In the 5 min of test phase, one of the objects was changed to a new one. The exploration time of these objects was recorded.
In both data sets, a discrimination index (DI) was calculated and used to evaluate the ability of mice to discriminate between familiar and novel objects. Data are represented in FIG. 23.
Amnesia was induced pharmacologically in mice via scopolamine injection (single dose) for 30 min prior to start the experiments. They were divided into vehicle group: receiving 15% tween 80 and 0.9% NSS, amnesia group: receiving scopolamine 1 mg/kg, standard positive control group receiving tacrine 1 mg/kg, and test group: receiving IND8, QND8 at dose 5, 10, 25, 50 μmol/kg, or PNU-282987 3, 10 mg/kg, single dose. All mice were acclimated in an experimental room at least 30 min before the experiments.
The apparatus was made of black polyvinyl chloride (52×52×40 cm). The objects used in this experiment had different visual shapes and colors to be discriminated. They were placed 10 cm from the side wall in the balanced manner. The box area and objects were cleaned with 70% ethanol between each experiment to remove odor cues.
The mice were randomly divided into different treatment groups. They were allowed to freely explore the open field apparatus for 5 min for habituation in the day prior to the experiments to get familiar with the apparatus. On the experimental day, test compounds injected 1 h, whereas scopolamine administered 30 min before the sample phase (acquisition trial). The mice were placed in the apparatus to explore 2 identical objects. After 10 min of acclimation in their cages, one object was changed to a new one, and mice were allowed to explore these objects for 5 min in the test phase (retention trial). The exploration time of each object was recorded if the nose of mice approached the objects within 3 cm or touched the objects. The discrimination index (DI) was calculated by using (TN−TF)/(TN+TF); TN and TF represented exploration time of new and familiar objects, respectively.

[2] = molecular target: hERG K^+ channel (Homo sapiens, UniProt Q12809); settings: at 20 μM; cited from earlier work
hERG K^+ channel, sequence (Q12809 whole entry): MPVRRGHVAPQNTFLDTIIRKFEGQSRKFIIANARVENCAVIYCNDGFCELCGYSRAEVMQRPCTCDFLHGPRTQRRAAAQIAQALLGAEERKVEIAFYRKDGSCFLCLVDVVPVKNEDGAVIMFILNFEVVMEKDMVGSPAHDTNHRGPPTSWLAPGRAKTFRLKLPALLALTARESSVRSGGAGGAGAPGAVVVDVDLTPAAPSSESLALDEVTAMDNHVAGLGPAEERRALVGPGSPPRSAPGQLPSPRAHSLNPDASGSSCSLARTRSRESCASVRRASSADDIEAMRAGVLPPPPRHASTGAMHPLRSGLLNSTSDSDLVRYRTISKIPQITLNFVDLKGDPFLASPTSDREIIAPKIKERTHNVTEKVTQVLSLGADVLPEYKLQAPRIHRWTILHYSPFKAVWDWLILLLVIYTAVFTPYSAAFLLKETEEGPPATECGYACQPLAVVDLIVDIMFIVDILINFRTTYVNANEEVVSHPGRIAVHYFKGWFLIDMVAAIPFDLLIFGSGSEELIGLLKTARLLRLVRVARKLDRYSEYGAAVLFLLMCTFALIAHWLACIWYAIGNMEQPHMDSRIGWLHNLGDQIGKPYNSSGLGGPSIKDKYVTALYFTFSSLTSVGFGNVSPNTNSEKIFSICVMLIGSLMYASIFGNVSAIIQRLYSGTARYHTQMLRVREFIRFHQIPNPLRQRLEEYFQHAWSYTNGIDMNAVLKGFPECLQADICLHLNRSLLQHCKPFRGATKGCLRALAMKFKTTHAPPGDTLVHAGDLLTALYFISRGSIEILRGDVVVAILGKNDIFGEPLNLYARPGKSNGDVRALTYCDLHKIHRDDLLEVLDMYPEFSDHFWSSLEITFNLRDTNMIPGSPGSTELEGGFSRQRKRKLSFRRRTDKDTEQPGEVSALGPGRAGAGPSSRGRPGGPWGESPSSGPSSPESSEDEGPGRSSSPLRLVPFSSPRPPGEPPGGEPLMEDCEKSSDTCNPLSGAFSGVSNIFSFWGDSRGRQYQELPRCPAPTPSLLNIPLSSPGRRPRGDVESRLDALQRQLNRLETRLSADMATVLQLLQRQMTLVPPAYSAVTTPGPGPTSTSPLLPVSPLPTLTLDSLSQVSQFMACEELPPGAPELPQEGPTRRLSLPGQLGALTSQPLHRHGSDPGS

| SMILES | Discrimination index / episodic short-term memory, ORT vs scopolamine-treated group [1] | Minimum effective dose, ORT [1] [µmol/kg] | inhibition of hERG [2] [%] |
| --- | --- | --- | --- |
| c1cc2cc(-c3cn(C4CN5CCC4CC5)nn3)ccc2[nH]1 (centres unmarked) [IND8, 5-((Quinuclid-3-yl)-1H-1,2,3-triazol-4-yl)-1H-indole] | significantly improved episodic short-term memory | 10 | – |
| O=C(N[C@H]1CN2CCC1CC2)c1ccc(Cl)cc1 [PNU-282987, reference compound] | – | – | 57 |
| Oc1ccc(-c2cn(C3CN4CCC3CC4)nn2)cc1 (centres unmarked) [QND8, 3-(4-hydroxyphenyl-1,2,3-triazol-1-yl) quinuclidine] | significantly improved episodic short-term memory | 10 | – |

Source: US20180244653A1, “SELECTIVE ALPHA-7 NICOTINIC RECEPTOR AGONISTS AND METHODS FOR MAKING AND USING THEM” (THE REGENTS OF THE UNIVERSITY OF CALIFORNIA, priority 2015, published 2018)
